Reference: patent US20200361871A1 (Enterprise Therapeutics Ltd., priority 2018, published 2020)

Target: human TMEM16A (TMEM16Aabc variant) (Homo sapiens, UniProt Q5XXA6, DEL476-501, form not given)
Experiment: Automated whole-cell patch clamp (Qpatch) TMEM16A potentiator assay in FRT cells stably expressing human TMEM16A
Type: cell-based
Settings: for % Potentiation @ 3.33 μM Avg: 3.33 μM solution of test compound, percentage increase of baseline TMEM16A current; for EC50: calculated EC50, Qpatch TMEM16A current at +70 mV
Method in brief: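 Potentiation was read as the rise in peak +70 mV current over baseline (%), from cumulative 5-min additions of compound. Recordings used whole-cell automated patch of FRT cells stably carrying human TMEM16Aabc, with pipette Ca2+ buffered to give ~20% maximal current. EC50 and efficacy came from concentration-response fits.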

Sequence of human TMEM16A (TMEM16Aabc variant) (Q5XXA6 with tags, fused parts or gaps DEL476-501): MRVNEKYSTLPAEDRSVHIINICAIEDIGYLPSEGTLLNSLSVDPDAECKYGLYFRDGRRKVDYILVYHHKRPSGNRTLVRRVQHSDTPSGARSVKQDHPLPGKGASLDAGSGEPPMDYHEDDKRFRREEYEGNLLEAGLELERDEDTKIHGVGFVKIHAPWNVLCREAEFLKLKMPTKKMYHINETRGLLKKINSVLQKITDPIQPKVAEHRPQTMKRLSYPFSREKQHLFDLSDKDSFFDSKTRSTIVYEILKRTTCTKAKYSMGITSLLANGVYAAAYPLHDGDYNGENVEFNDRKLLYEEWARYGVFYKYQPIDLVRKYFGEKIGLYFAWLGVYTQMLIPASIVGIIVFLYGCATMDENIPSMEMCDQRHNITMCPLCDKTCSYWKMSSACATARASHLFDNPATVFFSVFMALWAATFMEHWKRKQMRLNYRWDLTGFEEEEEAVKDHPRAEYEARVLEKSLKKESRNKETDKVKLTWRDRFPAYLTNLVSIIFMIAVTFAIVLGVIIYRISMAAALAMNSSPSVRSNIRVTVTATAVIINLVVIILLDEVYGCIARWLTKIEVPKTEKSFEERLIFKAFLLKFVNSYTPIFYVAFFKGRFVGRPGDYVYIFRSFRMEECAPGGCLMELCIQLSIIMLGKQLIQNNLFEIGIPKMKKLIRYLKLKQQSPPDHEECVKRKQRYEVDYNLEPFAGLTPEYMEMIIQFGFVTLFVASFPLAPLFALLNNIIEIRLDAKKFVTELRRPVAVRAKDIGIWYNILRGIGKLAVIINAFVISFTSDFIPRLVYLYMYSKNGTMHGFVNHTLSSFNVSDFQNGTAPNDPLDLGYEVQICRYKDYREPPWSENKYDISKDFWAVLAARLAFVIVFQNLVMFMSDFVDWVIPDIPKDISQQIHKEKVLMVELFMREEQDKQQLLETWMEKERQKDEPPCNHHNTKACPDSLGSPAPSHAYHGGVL

Row | Structure (SMILES) | % Potentiation @ 3.33 μM Avg | EC50
1 | CC(C)(C)NC(=O)c1cc(NC(=O)NCc2cccc(O)c2)ccn1 [Example 65.3, N-tert-Butyl-4-[(3-hydroxyphenyl)methylcarbamoylamino]pyridine-2-carboxamide] | 33% | 
2 | C#CC(C)(C)NC(=O)c1cc(NC(=O)Cc2ccccc2C(F)(F)F)ccn1 [Example 5.38, N-(1,1-Dimethylprop-2-ynyl)-4-[[2-[2-(trifluoromethyl)phenyl]acetyl]amino]pyridine-2-carboxamide] | 231% | 150 nM
3 | C#CC(C)(C)NC(=O)c1cc(NC(=O)CC(C)(C)C)ccn1 [Example 22.1, 4-(3,3-Dimethylbutanoylamino)-N-(1,1-dimethylprop-2-ynyl)pyridine-2-carboxamide] | 114% | 
4 | CC(C)(C)NC(=O)c1cc(NC(=O)Cc2ccc3c(c2)OCCO3)ccn1 [Compound 5.32] | 285% | 
5 | O=C(Cc1cc(Cl)ccc1O)Nc1ccnc(C(=O)NCc2ccccn2)c1 [Example 32.3, 4-[[2-(5-Chloro-2-hydroxy-phenyl)acetyl]amino]-N-(2-pyridylmethyl)pyridine-2-carboxamide] | 288% | 290 nM
6 | Cc1cc(NC(=O)Cc2cc(Cl)ccc2O)cc(C(=O)NC(C)(C)C)c1 [Example 9.1, N-tert-Butyl-3-[[2-(5-chloro-2-hydroxy-phenyl)acetyl]amino]-5-methyl-benzamide] | 77% | 4620 nM
7 | CC(C)(C)NC(=O)c1cc(NC(=O)C2CCc3ccc(O)cc32)ccn1 (stereo not shown) [Example 3.9b, N-tert-Butyl-4-[(6-hydroxyindane-1-carbonyl)amino]pyridine-2-carboxamide] | 144% | 960 nM
8 | O=C(Cc1cc(Cl)ccc1O)Nc1ccnc(C(=O)N[C@H]2CCC[C@@H]2O)c1 [Example 35.17, 4-[[2-(5-Chloro-2-hydroxy-phenyl)acetyl]amino]-N-[(1S,2S)-2-hydroxycyclopentyl]pyridine-2-carboxamide] | 153% | 150 nM
9 | CC(C)(C#N)NC(=O)c1cc(NC(=O)Cc2ccc(Cl)c(O)c2)ccn1 [Example 92.1, 4-[[2-(4-Chloro-3-hydroxy-phenyl)acetyl]amino]-N-(1-cyano-1-methyl-ethyl)pyridine-2-carboxamide] | 151% | 140 nM
10 | O=C(Cc1cc(Cl)ccc1O)Nc1ccnc(C(=O)N[C@H]2CCCC[C@H]2CO)c1 [Example 35.2, 4-[[2-(5-Chloro-2-hydroxy-phenyl)acetyl]amino]-N-[(1s,2r)-2-(hydroxymethyl)cyclohexyl]pyridine-2-carboxamide] | 300% | 610 nM
11 | CC(C)(C)NC(=O)c1cc(NC(=O)[C@@H]2CCc3ccccc32)ccn1 (single isomer, unassigned) [Example 21a, N-tert-Butyl-4-[[(1R)-indane-1-carbonyl]amino]pyridine-2-carboxamide or N-tert-Butyl-4-[[(1S)-indane-1-carbonyl]amino]pyridine-2-carboxamide] | 99% | 1570 nM
12 | CC(C)(C)NC(=O)c1cc(NC(=O)Cc2ccc(Cl)c(Cl)c2)ccn1 [Example 5.8, N-tert-Butyl-4-[[2-(3,4-dichlorophenyl)acetyl]amino]pyridine-2-carboxamide] | 116% | 460 nM
13 | CC(C)(CCNCC(F)(F)F)NC(=O)c1cc(NC(=O)Cc2cc(Cl)ccc2O)ccn1 [Example 43, 4-[[2-(5-Chloro-2-hydroxy-phenyl)acetyl]amino]-N-[1,1-dimethyl-3-(2,2,2-trifluoroethylamino)propyl]pyridine-2-carboxamide] | 174% | 700 nM
14 | COc1ccc(Cl)cc1CC(=O)Nc1ccnc(C(=O)NC(C)(C)C)c1 [Example 5.10, N-tert-Butyl-4-[[2-(5-chloro-2-methoxy-phenyl)acetyl]amino]pyridine-2-carboxamide] | 78% | 3770 nM
15 | COc1cccc(O)c1CC(=O)Nc1cccc(C(=O)NC(C)(C)C)c1 [Example 2.6, N-tert-Butyl-3-[[2-(2-hydroxy-6-methoxy-phenyl)acetyl]amino] benzamide] | 140% | 2910 nM
16 | CCOC(=O)CC(C)(C)NC(=O)c1cc(NC(=O)Cc2cc(Cl)ccc2O)ccn1 [Example 35.13, ethyl 3-[[4-[[2-(5-chloro-2-hydroxy-phenyl)acetyl]amino]pyridine-2-carbonyl]amino]-3-methyl-butanoate] | 191% | 350 nM
17 | CC(C)(C#N)NC(=O)c1cc(NC(=O)c2cccc(C(F)(F)F)n2)ccn1 [Example 83.16, N-[2-[(1-Cyano-1-methyl-ethyl)carbamoyl]-4-pyridyl]-6-(trifluoromethyl)pyridine-2-carboxamide] | 60% | 
18 | C#CC1(NC(=O)c2cc(NC(=O)Cc3cc(Cl)ccc3O)ccn2)CCOCC1 [Example 31.4, 4-[[2-(5-Chloro-2-hydroxy-phenyl)acetyl]amino]-N-(4-ethynyltetrahydropyran-4-yl)pyridine-2-carboxamide] | 186% | 20 nM

Row | Structure (SMILES) | % Potentiation @ 3.33 μM Avg | EC50
19 | CC(C)(CN1CCOCC1)NC(=O)c1cc(NC(=O)Cc2cc(Cl)ccc2O)ccn1 [Example 32.6, 4-[[2-(5-Chloro-2-hydroxy-phenyl)acetyl]amino]-N-(1,1-dimethyl-2-morpholino-ethyl)pyridine-2-carboxamide] | 153% | 820 nM
20 | CC(C)(C)NC(=O)c1cc(NC(=O)Cc2ccc(C(C)(C)C)cc2N)ccn1 [Example 88, 4-[[2-(2-Amino-4-tert-butyl-phenyl)acetyl]amino]-N-tert-butyl-pyridine-2-carboxamide] | 270% | 240 nM
21 | CC(C)(CF)NC(=O)c1cc(NC(=O)Cc2ccccc2Cl)ccn1 [Example 30.10, 4-[[2-(2-Chlorophenyl)acetyl]amino]-N-(2-fluoro-1,1-dimethyl-ethyl)pyridine-2-carboxamide] | 265% | 
22 | C#CC(C)(C)NC(=O)c1cc(NC(=O)Cc2cc(C(F)(F)F)ccc2O)ccn1 [Example 78.2, N-(1,1-Dimethylprop-2-ynyl)-4-[[2-[2-hydroxy-5-(trifluoromethyl)phenyl]acetyl]amino]pyridine-2-carboxamide] | 86% | 20 nM
23 | CC(C)(C)NC(=O)c1cc(NC(=O)Cc2ccccc2Br)ccn1 [Example 23.13, 4-[[2-(2-bromophenyl)acetyl]amino]-N-tert-butyl-pyridine-2-carboxamide] | 169% | 570 nM
24 | O=C(Cc1cc(Cl)ccc1O)Nc1ccnc(C(=O)NC2(CO)COC2)c1 [Example 35.26, 4-[[2-(5-Chloro-2-hydroxy-phenyl)acetyl]amino]-N-[3-(hydroxymethyl)oxetan-3-yl]pyridine-2-carboxamide] | 157% | 
25 | CC(C)(C)NC(=O)c1cc(NC(=O)NCc2ccccc2O)ccn1 [Example 65.2, N-tert-Butyl-4-[(2-hydroxyphenyl)methylcarbamoylamino]pyridine-2-carboxamide] | 73% | 480 nM
26 | N#CC1(NC(=O)c2cc(NC(=O)Cc3ccc(Cl)c(O)c3)ccn2)CCOCC1 [Example 92, 4-[[2-(4-Chloro-3-hydroxy-phenyl)acetyl]amino]-N-(4-cyanotetrahydropyran-4-yl)pyridine-2-carboxamide] | 133% | 110 nM
27 | COC(=O)c1ccc(O)c(CC(=O)Nc2ccnc(C(=O)NC(C)(C)C)c2)c1 [Example 13, Methyl 3-[2-[[2-(tert-butylcarbamoyl)-4-pyridyl]amino]-2-oxo-ethyl]-4-hydroxy-benzoate] | 245% | 1000 nM
28 | CC(C)(C)NC(=O)c1cccc(NC(=O)Cc2cccc(F)c2O)c1 [Example 2.2, N-tert-Butyl-3-[[2-(3-fluoro-2-hydroxy-phenyl)acetyl]amino]benzamide] | 158% | 1610 nM
29 | O=C(Cc1cc(Cl)ccc1O)Nc1ccnc(C(=O)NC23CC(C2)C3)c1 [Example 7.15, N-(3-Bicyclo[1.1.1]pentanyl)-4-[[2-(5-chloro-2-hydroxy-phenyl)acetyl]amino]pyridine-2-carboxamide] | 230% | 50 nM
30 | O=C(Cc1ccc2ncccc2c1)Nc1ccnc(C(=O)NC2CCOCC2)c1 [Example 63, 4-[[2-(6-Quinolyl)acetyl]amino]-N-tetrahydropyran-4-yl-pyridine-2-carboxamide] | 37% | 
31 | CCC(C)(C)NC(=O)c1cccc(NC(=O)Cc2ccccc2O)c1 [Example 1.1, N-(1,1-Dimethylpropyl)-3[[2-(2-hydroxyphenyl)acetyl]amino]benzamide] | 182% | 560 nM
32 | CC(C)(C)NC(=O)c1cccc(NC(=O)Cc2cc(C#N)ccc2O)c1 [Example 12, N-tert-Butyl-3-[[2-(5-cyano-2-hydroxy-phenyl)acetyl]amino] benzamide] | 112% | 1760 nM
33 | C#CC(C)(C)NC(=O)c1cc(NC(=O)Cc2cccc3cc[nH]c23)ccn1 [Example 79.3, N-(1,1-Dimethylprop-2-ynyl)-4-[[2-(1H-indol-7-yl)acetyl]amino]pyridine-2-carboxamide] | 64% | 240 nM
34 | N#CC12CC(NC(=O)c3cc(NC(=O)Cc4ccccc4Cl)ccn3)(C1)C2 [Example 30.5, 4-[[2-(2-Chlorophenyl)acetyl]amino]-N-(1-cyano-3-bicyclo[1.1.1]pentanyl) pyridine-2-carboxamide] | 63% | 
35 | CC(C)(C)NC(=O)c1cc(NC(=O)Cc2ccccc2C2CC2)ccn1 [Example 58, N-tert-Butyl-4-[[2-(2-cyclopropylphenyl)acetyl]amino]pyridine-2-carboxamide] | 217% | 
